# From patent US4569937A, “Analgesic mixture of oxycodone and ibuprofen” (priority 1985, dated 1986)
# Where two headings read alike, the source gives them in different places.
# Tested on: phenyl-p-benzoquinone induced writhing in mice
# Type: in vivo, mice (male CF1)
# Settings: oral, N=43 mice/dose; for % MICE BLOCKED: 5 min
SMILES,% MICE BLOCKED (oxycodone HCl 0.36 mg/kg) [%],% MICE BLOCKED (oxycodone HCl 0.72 mg/kg) [%],% MICE BLOCKED (oxycodone HCl 1.44 mg/kg) [%],% MICE BLOCKED (oxycodone HCl 2.88 mg/kg) [%],% MICE BLOCKED (oxycodone HCl 5.76 mg/kg) [%],"ED50 AT 5 MIN, Oxycodone (95% Confidence Limits) (oxycodone HCl part of the ED50 dose (alone or at fixed ratio oxycodone:ibuprofen)) [mg/kg]",% MICE BLOCKED (ibuprofen 2.25 mg/kg) [%],% MICE BLOCKED (ibuprofen 4.49 mg/kg) [%],% MICE BLOCKED (ibuprofen 8.98 mg/kg) [%],% MICE BLOCKED (ibuprofen 17.96 mg/kg) [%],"ED50 AT 5 MIN, Ibuprofen (95% Confidence Limits) (ibuprofen part of the ED50 dose (alone or at fixed ratio oxycodone:ibuprofen)) [mg/kg]"
COc1ccc2c3c1O[C@H]1C(=O)CC[C@@]4(O)[C@@H](C2)N(C)CC[C@]314 [Oxycodone],11.6,4.7,39.5,81.4,95.3,1.88,–,–,–,–,–
"CC(C)Cc1ccc(C(C)C(=O)O)cc1 (stereo not drawn) [Ibuprofen, α-methyl-4-(2-methylpropyl)benzeneacetic acid]",–,–,–,–,–,–,7.0,11.6,20.1,62.8,15.8
